A short description of series [1]: Partition coefficient, log P of the compound. Conditions: octanol/water. Format: physicochemical.
The test system of series [2] is Mus musculus. In words: Nootropic effect in Albino mouse assessed as decrease in transfer latency at 75 mg/kg, po after 24 hrs by elevated plus maze test. Format: functional. Set-up: scale not given: the % may be the effect or the level left.
Series [3] deals with Mus musculus. In words: Nootropic effect in Albino mouse assessed as decrease in transfer latency at 200 mg/kg, ip after 24 hrs by elevated plus maze test. Format: functional. Set-up: scale not given: the % may be the effect or the level left. The settings on record: route intraperitoneal.

The molecule `O=[N+]([O-])c1ccc(C2=[N+]([O-])C(c3ccccc3)N(C3CCCCC3)C2)cc1` (centres undefined) gave a log partition coefficient (logP) in series [1] of 2.41. Moreover, the Activity in the series with Mus musculus [2] was 51.6%.
On to `CN(C)c1ccc(C2N(Cc3ccccc3)CC(c3ccc([N+](=O)[O-])cc3)=[N+]2[O-])cc1` (centres undefined), for which the logP in series [1] was determined as 2.02. Also, in the series on Mus musculus [2], the Activity stood at 10.8%.
For `COc1ccc(N2CC(c3ccc([N+](=O)[O-])cc3)=[N+]([O-])C2c2ccc(N(C)C)cc2)cc1` (centres undefined) the same measures were 2.32 and 40.4%.
The molecule `O=[N+]([O-])c1ccc(C2=[N+]([O-])C(c3ccccc3)N(c3ccccc3)C2)cc1` (centres undefined) had a logP in series [1] of 2.45. The Activity in the series on Mus musculus [2] came to 36.4%.
Take `NC(=O)CN1CCCC1=O` [PIRACETAM]: the Activity with Mus musculus [3] was 51.3%.

Source of the values: ChEMBL document CHEMBL1139769, “PASS-predicted design, synthesis and biological evaluation of cyclic nitrones as nootropics” (Bioorg Med Chem Lett, 2007).
